# Test results: US11446365B2, “Antimalarial enzyme conjugates, kits containing same, and methods of producing and using same” (priority 2017, dated 2022)
# Tested on: P. yoelii parasites in erythrocytes
# Assay: Selenomethionine prodrug, 24 hour culture of parasitized blood, damaged parasites by flow cytometry
# Assay type: cell-based
# Protocol: Blood was harvested and pooled from three mice infected with the murine Plasmodium parasite P. yoelii. Pooled blood parasitemia was 4.0%. Erythrocytes were extracted from the blood and washed to remove debris. The cells were then incubated with excess mCGL-AV for 3 hours. After incubation, the cells were then washed to remove excess protein and debris. Samples were then incubated under an oxygen reduced atmosphere mimicking the conditions of blood within the body for 24 hours with varying concentrations of selenomethionine. Damaged parasites were enumerated via flow cytometry. The number of damaged parasites is expressed as a percentage of the total number of parasites. Error bars represent the standard error of n=3 repeats of the assay for the same pooled blood.
# To insure that healthy red blood cells were not damaged by such high concentrations of mCGL-AV, samples of treated and untreated blood were imaged using light microscopy to search for signs of hemolysis.
compound,measurement,setting,value
C[Se]CC[C@H](N)C(=O)O [selenomethionine],"impact on parasite viability, selenomethionine by itself","24 hours of culture, varying concentrations of selenomethionine, no fusion protein",no significant impact on parasite viability
same,damaged parasites with selenomethionine plus mCGL-AV,"excess mCGL-AV 3 hours, wash, then 24 hours with varying concentrations of selenomethionine",boosted the cytotoxicity of the fusion protein
